From US4128639A, “Nitrosourea analogs of thymidine” (Research Corporation, priority 1977, dated 1978)
pIC50: −log10 of the molar value. Where two headings read alike, the source gives them in different places.

Experiments:
L1210 leukemia cells = assay: Culture study with L1210: inhibition of replication/growth of L1210 cells in vitro; assay type: cell-based; conditions: Mus musculus, read-out: ED50 (drug concentration needed to inhibit cell growth by 50%)
Experimental: The effect of the compounds on the growth of L1210 cells in vitro was used as a measure of cytotoxicity. Suspension cultures were grown in Fischer's media supplemented with 10% horse serum at 37°. 72 Hours after addition of the nitrosoureas, cell numbers were determined in two independent samples, in duplicate, using a Coulter counter, for each concentration tested. ED50 values were estimated from dose-response curves compiled from at least three separate experiments and represent the drug concentration needed to inhibit cell growth by 50%.

L1210 cells [1] = assay: In vivo study with CDF1 mice inoculated with L1210 cells
Experimental: Two groups of CDF1 mice were inoculated with 1 × 10^5 L1210 cells/animal intraperitoneally. Two days later, one group of six mice received a single intraperitoneal injection (150 mg/Kg) of compound 5 (5'-[3-(2-chloroethyl)-3-nitrosoureido]-5'-deoxythymidine) and the control group was administered an equal volume of vehicle.

L1210 cells [2] = assay: Reversal of cytotoxicity of nitrosourea analogs of thymidine by pyrimidine deoxyribonucleosides (inhibition study in L1210 cultures); assay type: cell-based; conditions: for Percent Reversal: nitrosourea analog 5 μM
[3] = single intraperitoneal injection 150 mg/kg, 2 days after 1 × 10^5 L1210 cells, CDF1 mice
[4] = reversing agent deoxycytidine 0 μM
[5] = reversing agent deoxycytidine 5 μM
[6] = reversing agent deoxycytidine 25 μM
[7] = reversing agent deoxyuridine 0 μM
[8] = reversing agent deoxyuridine 5 μM
[9] = reversing agent deoxyuridine 25 μM
[10] = reversing agent thymidine 25 μM

SMILES	pIC50 (L1210 leukemia cells; L1210, 72 h)	Percent Reversal (L1210 cells [2]; [4]) [%]	Percent Reversal (L1210 cells [2]; [5]) [%]	Percent Reversal (L1210 cells [2]; [6]) [%]	Percent Reversal (L1210 cells [2]; [7]) [%]	Percent Reversal (L1210 cells [2]; [8]) [%]	Percent Reversal (L1210 cells [2]; [9]) [%]	Percent Reversal (L1210 cells [2]; reversing agent thymidine 0 μM) [%]	Percent Reversal (L1210 cells [2]; reversing agent thymidine 1 μM) [%]	Percent Reversal (L1210 cells [2]; reversing agent thymidine 5 μM) [%]	Percent Reversal (L1210 cells [2]; [10]) [%]	other results
O=NN(CCCl)C(=O)NCCCl [BCNU, 1,3-bis(2-Chloroethyl)-1-nitrosourea, reference compound]	5.40											
Cc1cn([C@H]2C[C@H](O)[C@@H](CNC(=O)N(CCCl)N=O)O2)c(=O)[nH]c1=O [Compound 5, 5'-[3-(2-chloroethyl)-3-nitrosoureido]-5'-deoxythymidine]												animals survived more than 60 days (L1210 cells [1]; single intraperitoneal injection 150 mg/Kg, 2 days after 1 × 10^5 L1210 cells, CDF1 mice): 2/6; tumor cell kill (L1210 cells [1]; single intraperitoneal injection 150 mg/Kg, L1210, CDF1 mice): ~5 log; increase in life span of the dying animals over the controls (L1210 cells [1]; [3]): 211%; long term survivors (>60 days) (L1210 cells [1]; [3]): 33%
Cc1cn([C@H]2C[C@H](NC(=O)N(CCCl)N=O)[C@@H](CO)O2)c(=O)[nH]c1=O [Compound 10, 3'-[3-(2-chloroethyl)-3-nitrosoureido]-3'-deoxythymidine]	5.82	0	28	40	0	32	51	0	22	45	54	Percent Reversal (L1210 cells [2]; reversing agent deoxycytidine 1 μM): 5%; Percent Reversal (L1210 cells [2]; reversing agent deoxyuridine 1 μM): 4%
Cc1cn([C@H]2C[C@H](NC(=O)N(C)N=O)[C@@H](CO)O2)c(=O)[nH]c1=O [Compound 11, 3'-(3-methyl-3-nitrosoureido)-3'-deoxythymidine]		0	42	74	0	49	81	0	21	54	62	inhibition at 5 µM (L1210 cells [2]; Mus musculus, compound 11 5 μM, no deoxycytidine, L1210, 72 hours, read-out: Percent Inhibition): 100%; Percent Inhibition (L1210 cells [2]; compound 11 5 μM + deoxycytidine 5 μM, L1210, 72 hours): 58%; Percent Inhibition (L1210 cells [2]; compound 11 5 μM + deoxycytidine 25 μM, L1210, 72 hours): 26%; Percent Inhibition (L1210 cells [2]; compound 11 5 μM + deoxycytidine 125 μM, L1210, 72 hours): 0%; Percent Reversal (L1210 cells [2]; reversing agent deoxycytidine 125 μM): 100%; pIC50 (L1210 leukemia cells; L1210 cells in culture, 72 hours, Coulter counter, Fischer's media with 10% horse serum, 37°): 6.00
